Test results reported in patent publication US9381349B2, “Apparatus for treating cerebral neurovascular disorders including headaches by neural stimulation” (priority 1997, dated 2016).
Entries after “also recorded” stand apart in the source; their conditions may differ. Read-outs that look alike come from different tables or passages of the source.

What was measured:
acute migraine episodes = assay type: in vivo, human; design: key to Pain Rating After Administration: 0 = no pain, 10 = worst pain imaginable; settings: for Mean Time Until Maximal Effect: no unit in table (minutes); for Pain Rating After Administration / Pain Relief: mean; for Pain Rating After Administration / Pain Relief / Rate of Pain Relief (migraine pain reduction per minute per gram of drug): 10-point pain scale
Description: The purpose of the experiments described in this Example was to determine the efficacy of dorsonasal administration of ropivacaine for inhibition of acute migraine episodes. Ropivacaine was dorsonasally administered to individual patients experiencing head pain, other symptoms, or both, believed to be associated with an acute migraine episode. Patients assessed head pain prior to and after ropivacaine administration.
Ropivacaine-HCl (NAROPINT™, Astra USA, Westborough, Mass.) was used as the commercially-available 0.75% (w/v) solution, and was obtained in 30 milliliter, sterile injectable vials.
Three methods were used to achieve dorsonasal delivery of ropivacaine to individual patients. Ropivacaine was administered to a first group of patients by an intranasal drip method. Ropivacaine was administered to a second group using cotton swabs, the absorbent portions of which were saturated with the ropivacaine solution. Ropivacaine was administered to patients in a third group by spraying the ropivacaine solution into each nostril, using either a squeeze-type spray bottle or a metered-dose spray bottle.
The intranasal drip method used to administer ropivacaine to the first group of patients was a based on the method described by Barre (1982, Headache 22:69-73), except that the ropivacaine solution was used in place of the solution used by Bane. Approximately 0.75 milliliter to approximately 1.0 milliliter of the ropivacaine solution was administered by way of each of the nostrils of each patient.
The cotton swab method used to administer ropivacaine to the second group of patients comprised gently inserting cotton swabs, sequentially and bilaterally, into the nostrils of patients and urging the swabs dorsally until their absorbent portions contacted portions of nasal epithelium located dorsal to the middle conchae. Each swab was left in place for approximately one minute, and was then withdrawn. Approximately 0.5 milliliter of the ropivacaine solution was delivered to each nostril using this method.
Patients in a third group were administered ropivacaine by spraying less than about 0.5 milliliter of the ropivacaine solution into each of the patient's nostrils using either a sterile squeeze bottle or a sterile metered-dose spray bottle of known design. The design and operation of each of these spray bottles are well known in the art.
Prior to administration of ropivacaine, each patient was placed in a supine position with the patient's head hyperextended approximately 45 degrees and rotated approximately 30 degrees to the right side. In this position, an imaginary line extending from the region of the nasal epithelium overlying the SPG of the patient through the patient's left nostril was approximately vertical. Ropivacaine was then administered to the left nostril of the patient as described for each of the three groups of patients. Ropivacaine was administered to each patient's right nostril after rotating the patient's head approximately 30 degrees to the left. Ropivacaine was administered to both nostrils of each patient to prevent cases of unilateral migraine from developing into contralateral migraine.
Prior to ropivacaine administration, each patient rated perceived headache pain according to a standard pain scale of the type used in the art. Patients were asked to rank the severity of pain which they were experiencing on a scale from 0 (no pain) to 10 (worst pain imaginable). This ten-point pain rating scale is analogous to, but has more gradations than, the four-point rating system used by the International Headache Society (IHS; Headache Classification Committee of the International Headache Society, 1988, Cephalalgia 8(Suppl. 7):19-28). Ropivacaine was administered to one nostril of each patient, and then to the other. The time required to administer ropivacaine to both nostrils of each patient was approximately three minutes. […]

nerve structure = settings: in vivo; cited from earlier work
[1] = ropivacaine 0.75% (w/v), 2 Metered Sprays per nostril, individual patients, pain scale 0-10
[2] = ropivacaine 0.75% (w/v), 2 Sprays per nostril (squeeze bottle), individual patients, pain scale 0-10
[3] = ropivacaine 0.75% (w/v), 2 cc Drops (nasal drip), individual patients, pain scale 0-10
[4] = ropivacaine 0.75% (w/v), Sat'd Cotton Swab, individual patients, pain scale 0-10
[5] = ropivacaine 0.75% (w/v), Sat'd Cotton Swab, individual patients, pain scale 0-10, listed as R
[6] = ropivacaine vs literature rizatriptan data (Kramer et al.)
[7] = ropivacaine, Cotton Swab, 24 patients
[8] = ropivacaine, Nasal Drops, 3 patients
[9] = ropivacaine, Nasal Spray, 10 patients
[10] = ropivacaine, nasal drops, three patients

Apparent allergic reaction (acute migraine episodes; human, in vivo): allergic reaction between 5
Oropharyngeal numbness (acute migraine episodes; human, in vivo): 6
SMILES: CCCN1CCCC[C@H]1C(=O)Nc1c(C)cccc1C [Ropivacaine, ropivacaine]
Adverse effects of administration (acute migraine episodes; human, in vivo): one patient experienced an allergic response to ropivacaine administration
Time to half maximal inhibition of CNvD or symptom (acute migraine episodes; intranasal or dorsonasal administration): within about three minutes
Pain 10 min post-treatment (acute migraine episodes; [1]): Pain 10 min post-treatment: 0
Pain 15 min post-treatment (acute migraine episodes; [1]): Pain 15 min post-treatment: 5
Pain 20 min post-treatment (acute migraine episodes; [1]): Pain 20 min post-treatment: 3
Pain 45 min post-treatment (acute migraine episodes; [1]): Pain 45 min post-treatment: 0
Pain 60 min post-treatment (acute migraine episodes; [1]): Pain 60 min post-treatment: 2
Pain 90 min post-treatment (acute migraine episodes; [1]): Pain 90 min post-treatment: 0
Pain 2 min post-treatment (acute migraine episodes; [2]): Pain 2 min post-treatment: 0
Pain 10 min post-treatment (acute migraine episodes; [2]): Pain 10 min post-treatment: 0
Pain 15 min post-treatment (acute migraine episodes; [2]): Pain 15 min post-treatment: 2
Pain 20 min post-treatment (acute migraine episodes; [2]): 0
Pain 30 min post-treatment (acute migraine episodes; [2]): 0
Pain 3 min post-treatment (acute migraine episodes; [3]): Pain 3 min post-treatment: 0
Pain 60 min post-treatment (acute migraine episodes; [3]): Pain 60 min post-treatment: 0
Pain 15 min post-treatment (acute migraine episodes; ropivacaine 0.75% (w/v), 2 cc Drops (nasal drip), individual patients, pain scale 0-10, listed as R): Pain 15 min post-treatment: 0; also recorded: Pain 15 min post-treatment: 5
Persistence of residual pain (acute migraine episodes; ropivacaine 0.75% (w/v), Sat'd Cotton Swab, P#40): Level 5 pain endured 8 hours
Pain 1 min post-treatment (acute migraine episodes; [4]): Pain 1 min post-treatment: 0
Pain 8 min post-treatment (acute migraine episodes; [4]): Pain 8 min post-treatment: 0
Pain 15 min post-treatment (acute migraine episodes; [4]): Pain 15 min post-treatment: 0
Pain 30 min post-treatment (acute migraine episodes; [4]): Pain 30 min post-treatment: 5
Pain 18 hrs post-treatment (acute migraine episodes; [4]): Pain 18 hrs post-treatment: 8
Pain 24 hours post-treatment (acute migraine episodes; [4]): Pain 24 hours post-treatment: 1
Pain 2 min post-treatment (acute migraine episodes; [5]): Pain 2 min post-treatment: 1; also recorded: Pain 2 min post-treatment: 0
Pain 3 min post-treatment (acute migraine episodes; [5]): Pain 3 min post-treatment: 0; also recorded: Pain 3 min post-treatment: 1
Pain 5 min post-treatment (acute migraine episodes; [5]): Pain 5 min post-treatment: 0; also recorded: Pain 5 min post-treatment: 1; also recorded: Pain 5 min post-treatment: 2
Pain 10 min post-treatment (acute migraine episodes; [5]): Pain 10 min post-treatment: 1; also recorded: Pain 10 min post-treatment: 0
Pain 20 min post-treatment (acute migraine episodes; [5]): Pain 20 min post-treatment: 3; also recorded: Pain 20 min post-treatment: 0
Patients with significant pain reduction (acute migraine episodes; ropivacaine 0.75% (w/v), cotton swab): 100%
Effectiveness to reduce pain associated with migraine (acute migraine episodes; ropivacaine 0.75% (w/v), dorsonasal spray): 100%
Pain following spray (acute migraine episodes; ropivacaine 0.75% (w/v), retreated with 2 Sprays 18 hrs after swab treatment (P#14), pain scale 0-10): 0
Response rate compared with lidocaine (FIG. 3) (acute migraine episodes; ropivacaine vs literature lidocaine data (Maizels et al.)): nearly two-fold greater response rate
Rebound rate compared with rizatriptan (acute migraine episodes; [6]): lower than the rebound rate following rizatriptan administration
Response rate compared with rizatriptan (acute migraine episodes; [6]): greater than the response rate obtained by administration of rizatriptan
Onset of relief and response rate compared with sumatriptan (FIG. 3) (acute migraine episodes; ropivacaine vs literature subcutaneous sumatriptan data): earlier onset of relief and a higher response rate
Mean Reduction in Pain Rating (acute migraine episodes; [7]): 8.64 IHS points
Mean Time Until Maximal Effect (acute migraine episodes; [7]): 7.41
Pain Rating After Administration (acute migraine episodes; ropivacaine, Cotton Swab): 0.33
Pain Relief (acute migraine episodes; ropivacaine, Cotton Swab): 8.73
Rebound Rate (acute migraine episodes; ropivacaine, Dorsonasal Spray): 10%
Relative Efficacy (Rate of Pain Relief divided by that of intranasally spray-administered lidocaine) (acute migraine episodes; ropivacaine, Dorsonasal Spray): 2.45
Rate of Pain Relief (migraine pain reduction per minute per gram of drug) (acute migraine episodes; ropivacaine, Dorsonasal Spray): 24.5
Rebound Rate (acute migraine episodes; ropivacaine, Dorsonasal Swab): 4%
Relative Efficacy (Rate of Pain Relief divided by that of intranasally spray-administered lidocaine) (acute migraine episodes; ropivacaine, Dorsonasal Swab): 15.5
Rate of Pain Relief (migraine pain reduction per minute per gram of drug) (acute migraine episodes; ropivacaine, Dorsonasal Swab): 155
Rate of Pain Relief (acute migraine episodes; ropivacaine, Nasal Drops): 1.25 IHS points per minute
Mean Reduction in Pain Rating (acute migraine episodes; [8]): 9.00 IHS points
Mean Time Until Maximal Effect (acute migraine episodes; [8]): 26.0
Pain Rating After Administration (acute migraine episodes; ropivacaine, Nasal Drops): 0.00
Pain Relief (acute migraine episodes; ropivacaine, Nasal Drops): 9.00
Rate of Pain Relief (acute migraine episodes; ropivacaine, Nasal Spray): 0.287 IHS points per minute
Mean Reduction in Pain Rating (acute migraine episodes; [9]): 6.22 IHS points
Mean Time Until Maximal Effect (acute migraine episodes; [9]): 33.9
Pain Rating After Administration (acute migraine episodes; ropivacaine, Nasal Spray): 1.00
Pain Relief (acute migraine episodes; ropivacaine, Nasal Spray): 6.22
Patients with complete relief (acute migraine episodes; ropivacaine, all routes): 72%
Patients with migraine inhibited / significant (greater than 50%) reduction of migraine severity (acute migraine episodes; ropivacaine, all routes, thirty-seven migraine patients): 92%
Average reduction in perceived pain (acute migraine episodes; ropivacaine, all routes, within one hour, usually within 15 minutes or less): 90%
Rebound of migraine, patients (acute migraine episodes; ropivacaine, all routes, within twenty-four hours of treatment): 5.4%
Mean time between treatment and perception of the peak effect (acute migraine episodes; ropivacaine, cotton swab): 7.41 ± 1.47 min
Patients achieving a pain severity rating of zero (acute migraine episodes; ropivacaine, cotton swab): 72%
Patients achieving a pain severity rating of zero or one (acute migraine episodes; ropivacaine, cotton swab): 95%
Patients with rebound (acute migraine episodes; ropivacaine, cotton swab): 4%
Rate of Pain Relief (acute migraine episodes; ropivacaine, cotton swab): 2.32 IHS points per minute
Mean peak headache severity rating reduction (acute migraine episodes; ropivacaine, cotton swab, twenty-four patients): 8.73±0.249 points
Mean post-administration pain severity rating at the time of peak effect (acute migraine episodes; ropivacaine, cotton swab, twenty-four patients, mean±standard error, out of 10 points): 0.33±0.14 points
Potency relative to intranasally spray-administered lidocaine (pain relief per unit weight) (acute migraine episodes; ropivacaine, dorsonasally spray-administered): 2.4 times
Potency relative to intranasally spray-administered lidocaine (pain relief per unit weight) (acute migraine episodes; ropivacaine, dorsonasally swab-administered): more than 15 times
Mean time between treatment and perception of the peak effect (acute migraine episodes; [10]): 26.00 ± 17.37 min
Migraine rebound (acute migraine episodes; [10]): None of the three patients experienced migraine rebound
Mean peak headache severity rating reduction (acute migraine episodes; ropivacaine, nasal drops, three patients, out of 10 points): 9.00 points
Mean time between treatment and perception of the peak effect (acute migraine episodes; ropivacaine, nasal spray, ten patients): 33.9 ± 8.48 min
Mean peak headache severity rating reduction (acute migraine episodes; ropivacaine, nasal spray, ten patients, out of 10 points): 6.22±0.66 points
Mean headache pain severity rating reduction in patients without complete relief (acute migraine episodes; ropivacaine, nasal spray, the remainder of ten patients): 87.5±6.49%
Patients without rebound (acute migraine episodes; ropivacaine, patients observed for up to seven days): 95%
Anesthetic effect of 0.75% (w/v) ropivacaine-HCl relative to lidocaine (nerve structure): approximately equivalent to that of 3% (w/v) lidocaine
